According to ChEMBL document CHEMBL1743341, “Cytochrome p450 enzymes mechanism based inhibitors: common sub-structures and reactivity” (Curr Drug Metab, 2005):
Several values for one entry are separate records, joined by “and”; a condition that tells them apart may be missing. Identical values can stand only once. Blank lines part the entries; values can stand above or below the compound they belong to.

Key:
[1] = biological target: T1, Cytochrome P450 2B6 (Homo sapiens, UniProt P20813); assay: Mechanism based inhibition of human cytochrome P450 2B6, partition ratio (value refers to P450 expressed in lymphoblastoid cells); assay type: ADME, cell-based
T1 sequence (P20813 whole entry): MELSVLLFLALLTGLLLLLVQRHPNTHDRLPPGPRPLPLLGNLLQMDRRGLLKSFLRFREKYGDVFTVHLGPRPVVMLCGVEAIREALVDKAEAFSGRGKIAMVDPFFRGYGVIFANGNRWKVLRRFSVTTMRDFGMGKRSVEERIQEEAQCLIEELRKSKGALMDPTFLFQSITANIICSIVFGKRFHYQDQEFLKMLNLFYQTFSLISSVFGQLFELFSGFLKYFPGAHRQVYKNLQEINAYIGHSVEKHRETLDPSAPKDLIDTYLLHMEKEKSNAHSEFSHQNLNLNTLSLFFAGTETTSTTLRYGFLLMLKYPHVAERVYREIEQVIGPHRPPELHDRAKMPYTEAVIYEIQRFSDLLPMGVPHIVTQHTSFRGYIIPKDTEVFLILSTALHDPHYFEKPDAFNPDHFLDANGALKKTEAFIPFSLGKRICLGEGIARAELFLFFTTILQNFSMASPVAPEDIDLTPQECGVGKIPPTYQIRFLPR

[2] = biological target: T2, CYP2A6 (Homo sapiens, UniProt P11509); assay: (§1) Mechanism based inhibition of human cytochrome P450 2A6 measured by coumarin 7-hydroxylation; assay type: ADME; conditions: human, probe coumarin (7-hydroxylation)
T2 sequence (P11509 whole entry): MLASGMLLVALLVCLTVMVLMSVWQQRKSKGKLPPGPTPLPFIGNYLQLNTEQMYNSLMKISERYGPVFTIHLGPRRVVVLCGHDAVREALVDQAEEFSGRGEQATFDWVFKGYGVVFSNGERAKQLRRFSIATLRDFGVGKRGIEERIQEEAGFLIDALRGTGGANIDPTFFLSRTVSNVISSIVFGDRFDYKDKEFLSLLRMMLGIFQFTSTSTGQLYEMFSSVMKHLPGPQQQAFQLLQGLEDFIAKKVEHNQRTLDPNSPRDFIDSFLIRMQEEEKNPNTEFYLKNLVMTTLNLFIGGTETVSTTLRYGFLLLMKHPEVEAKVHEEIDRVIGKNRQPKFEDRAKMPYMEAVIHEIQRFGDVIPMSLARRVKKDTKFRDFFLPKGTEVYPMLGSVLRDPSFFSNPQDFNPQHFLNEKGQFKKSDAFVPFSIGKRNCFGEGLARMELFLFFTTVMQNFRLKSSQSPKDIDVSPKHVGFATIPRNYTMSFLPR

[3] = biological target: T3, Cytochrome P450 2A6 (Homo sapiens, UniProt P11509); assay: as §1; assay type: ADME
T3 sequence (P11509 whole entry): T2 sequence (P11509 whole entry)

[4] = biological target: T1, Cytochrome P450 2B6; assay: (§2) Mechanism based inhibition of human cytochrome P450 2B6 measured by 7-EFC O-deethylation
[5] = biological target: T1, Cytochrome P450 2B6; assay: as §2; remark: listed apart in the source
[6] = biological target: T4, Cytochrome P450 3A4 (Homo sapiens, UniProt P08684); assay: Mechanism based inhibition of human cytochrome P450 3A4 measured by midazolam hydroxylation in vivo; assay type: ADME, organism-based
T4 sequence (P08684 whole entry): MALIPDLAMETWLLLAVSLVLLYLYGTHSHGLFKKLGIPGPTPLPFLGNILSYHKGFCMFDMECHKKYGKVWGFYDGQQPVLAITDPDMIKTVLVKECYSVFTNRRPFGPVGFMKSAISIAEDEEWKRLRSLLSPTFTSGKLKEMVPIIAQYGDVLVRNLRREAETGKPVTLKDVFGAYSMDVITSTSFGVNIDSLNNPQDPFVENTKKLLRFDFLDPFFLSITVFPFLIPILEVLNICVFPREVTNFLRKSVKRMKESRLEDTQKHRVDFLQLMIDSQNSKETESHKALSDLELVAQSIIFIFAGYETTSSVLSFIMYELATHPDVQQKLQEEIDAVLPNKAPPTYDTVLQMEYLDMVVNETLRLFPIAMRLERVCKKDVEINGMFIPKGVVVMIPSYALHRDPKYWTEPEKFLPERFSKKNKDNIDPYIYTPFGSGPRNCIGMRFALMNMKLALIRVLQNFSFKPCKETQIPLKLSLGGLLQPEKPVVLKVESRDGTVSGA

[7] = biological target: T5, Cytochrome P450 2B1 (Rattus norvegicus, UniProt P00176); assay: Mechanism based inhibition of rat cytochrome P450 2B1 measured by 7-EFC O-deethylation
T5 sequence (P00176 whole entry): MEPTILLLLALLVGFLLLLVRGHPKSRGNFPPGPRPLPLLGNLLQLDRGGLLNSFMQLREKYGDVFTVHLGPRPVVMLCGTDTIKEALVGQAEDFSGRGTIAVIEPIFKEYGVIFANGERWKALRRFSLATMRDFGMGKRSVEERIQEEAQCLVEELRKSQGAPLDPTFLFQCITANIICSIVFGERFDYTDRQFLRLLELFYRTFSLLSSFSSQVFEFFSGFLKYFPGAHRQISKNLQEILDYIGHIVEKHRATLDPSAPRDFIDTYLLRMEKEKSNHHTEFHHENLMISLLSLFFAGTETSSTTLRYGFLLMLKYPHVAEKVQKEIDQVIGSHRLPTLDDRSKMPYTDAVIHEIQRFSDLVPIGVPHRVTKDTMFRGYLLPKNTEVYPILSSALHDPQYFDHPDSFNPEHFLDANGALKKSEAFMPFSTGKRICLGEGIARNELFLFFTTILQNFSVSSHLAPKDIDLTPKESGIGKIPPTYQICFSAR

[8] = biological target: T6, CYP3A4 (Homo sapiens, UniProt P08684); assay: (§3) Mechanism based inhibition of human cytochrome P450 3A4 measured by testosterone hydroxylation; assay type: ADME; conditions: human, probe testosterone (hydroxylation)
T6 sequence (P08684 whole entry): as the sequence (P08684 whole entry) above

[9] = biological target: T4, Cytochrome P450 3A4; assay: as §3; assay type: ADME
[10] = biological target: T4, Cytochrome P450 3A4; assay: Mechanism based inhibition of human cytochrome P450 3A4 measured by transformation of triazolam into its alpha-hydroxy and 4-hydroxy metabolites; assay type: ADME
[11] = biological target: CYP3A5 (Homo sapiens, UniProt P20815); assay: (§4) Mechanism based inhibition of human cytochrome P450 3A5 measured by testosterone hydroxylation; assay type: ADME; conditions: human, probe testosterone (hydroxylation)
Sequence of CYP3A5 (P20815 whole entry): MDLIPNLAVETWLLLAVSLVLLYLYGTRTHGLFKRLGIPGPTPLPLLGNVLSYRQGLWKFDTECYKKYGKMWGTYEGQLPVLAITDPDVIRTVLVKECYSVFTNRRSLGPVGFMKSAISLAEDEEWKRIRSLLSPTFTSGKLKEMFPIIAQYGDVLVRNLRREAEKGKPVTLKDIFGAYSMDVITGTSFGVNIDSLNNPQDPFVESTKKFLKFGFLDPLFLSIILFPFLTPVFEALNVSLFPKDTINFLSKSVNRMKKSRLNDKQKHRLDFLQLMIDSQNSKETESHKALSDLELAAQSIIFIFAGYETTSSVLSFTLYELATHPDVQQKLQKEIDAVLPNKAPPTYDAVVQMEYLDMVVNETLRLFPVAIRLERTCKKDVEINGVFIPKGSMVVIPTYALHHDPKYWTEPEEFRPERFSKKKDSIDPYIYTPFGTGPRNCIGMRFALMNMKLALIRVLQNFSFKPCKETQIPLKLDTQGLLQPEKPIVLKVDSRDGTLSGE

[12] = biological target: Cytochrome P450 3A5 (Homo sapiens, UniProt P20815); assay: as §4; assay type: ADME
Sequence of Cytochrome P450 3A5 (P20815 whole entry): as above

[13] = biological target: T6, CYP3A4; assay: (§5) Mechanism based inhibition of human cytochrome P450 3A4 measured by N-demethylation of erythromycin; assay type: ADME; conditions: human, probe erythromycin (N-demethylation)
[14] = biological target: T4, Cytochrome P450 3A4; assay: as §5; assay type: ADME
[15] = biological target: T5, Cytochrome P450 2B1; assay: Mechanism based inhibition of rat cytochrome P450 2B1 measured by 7-ethoxyresorufin O-deethylation (EROD); assay type: ADME
[16] = biological target: T4, Cytochrome P450 3A4; assay: Mechanism based inhibition of human cytochrome P450 3A4 measured by testosterone 6-beta hydroxylation and midazolam 1'-hydroxylation; assay type: ADME
[17] = biological target: T1, Cytochrome P450 2B6; assay: Mechanism based inhibition of human cytochrome P450 2B6, partition ratio (value refers to P450 expressed in baculovirus infected insect cells); assay type: ADME
[18] = biological target: T4, Cytochrome P450 3A4; assay: Mechanism based inhibition of human cytochrome P450 3A4 measured by testosterone 6-beta hydroxylation; assay type: ADME
[19] = biological target: T7, Cytochrome P450 3A6 (Oryctolagus cuniculus, UniProt P11707); assay: Mechanism based inhibition of rabbit cytochrome P450 3A6 measured by testosterone and progesterone 6-beta hydroxylation; assay type: ADME
T7 sequence (P11707 whole entry): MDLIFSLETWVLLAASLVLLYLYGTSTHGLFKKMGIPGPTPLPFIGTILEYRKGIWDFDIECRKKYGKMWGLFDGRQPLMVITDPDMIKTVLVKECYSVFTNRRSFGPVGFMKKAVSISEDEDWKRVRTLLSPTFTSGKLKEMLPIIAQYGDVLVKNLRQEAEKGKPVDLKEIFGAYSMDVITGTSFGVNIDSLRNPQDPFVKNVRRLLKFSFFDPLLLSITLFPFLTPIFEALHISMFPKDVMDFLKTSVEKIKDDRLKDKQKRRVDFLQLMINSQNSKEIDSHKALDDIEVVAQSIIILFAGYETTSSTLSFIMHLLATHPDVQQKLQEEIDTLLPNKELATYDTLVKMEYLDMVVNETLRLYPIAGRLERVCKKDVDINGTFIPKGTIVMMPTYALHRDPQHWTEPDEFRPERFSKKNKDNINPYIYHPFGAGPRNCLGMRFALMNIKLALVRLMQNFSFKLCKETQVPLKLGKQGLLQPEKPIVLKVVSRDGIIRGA

[20] = biological target: T7, Cytochrome P450 3A6; assay: Mechanism based inhibition of rabbit cytochrome P450 3A6, partition ratio; assay type: ADME

SMILES: C#C[C@]1(O)CC[C@H]2[C@@H]3CCc4cc(O)ccc4[C@H]3CC[C@@]21C [ETHINYL ESTRADIOL]
Ki [4]: 800 nM | Ki [5]: 900 nM | mechanism based inhibition [6]: Cytochrome P450 mechanistic inhibitor: PMID 11012556 | Ki [7]: 11000 nM

SMILES: COc1cc2c(c(OC)c1OC)-c1c(cc3c(c1OC)OCO3)C[C@H](C)[C@](C)(O)[C@H]2OC(=O)c1ccccc1 [GOMISIN C]
kinact [13]: 0.00153 s⁻¹ | Ki [14]: 399 nM

SMILES: C#CCCCc1ccccc1
mechanism based inhibition [15]: Cytochrome P450 mechanistic inhibitor: PMID 9760279

SMILES: COCC(=O)O[C@]1(CCN(C)CCCc2nc3ccccc3[nH]2)CCc2cc(F)ccc2[C@@H]1C(C)C [MIBEFRADIL]
mechanism based inhibition [16]: Cytochrome P450 mechanistic inhibitor: PMID 10640508

SMILES: COc1c2ccoc2cc2oc(=O)ccc12 [BERGAPTEN]
Partition ratio [17]: 57.4 | kinact [2]: 0.006 s⁻¹ | Ki [3]: 12000 nM

Continued, in another order:

Partition ratio [1]: 46 and 71.2 | kinact [2]: 0.005 s⁻¹ | Ki [3]: 600 nM
SMILES: O=c1ccc2cc3ccoc3cc2o1 [PSORALEN]

kinact [8]: 0.0122 s⁻¹ | Ki [9]: 260 nM | kinact [11]: 0.00583 s⁻¹ | Ki [12]: 200 nM
SMILES: CC(C)CN(C[C@@H](O)[C@H](Cc1ccccc1)NC(=O)O[C@H]1CCOC1)S(=O)(=O)c1ccc(N)cc1
mechanism based inhibition [10]: Cytochrome P450 mechanistic inhibitor: PMID 10952482

Ki [19]: 80100 nM | Partition ratio [20]: 21
SMILES: O=c1cc(-c2ccccc2)oc2c1ccc1ccccc12 [ALPHA-NAPHTHOFLAVONE]
mechanism based inhibition [18]: Cytochrome P450 mechanistic inhibitor: PMID 11640917
